Results: ChEMBL document CHEMBL1128921, “Mechanism-based inactivation of serine proteases by dichlorocyclopropane fused lactone derivatives” (Bioorg Med Chem Lett, 1996)

Columns and labels:
[1] = target: Chymotrypsinogen A (Bos taurus) (UniProt P00766); assay: Compound was evaluated for inhibitory activity against alpha-chymotrypsin at a concentration of 5.0 x 10e-4
[2] = target: T1, Chymotrypsin-like elastase family member 2A (Sus scrofa) (UniProt P08419); assay: Compound was evaluated for inhibitory activity against PP elastase at a concentration of 1.2 x 10e-3; NI = No inactivation
T1 sequence (whole entry): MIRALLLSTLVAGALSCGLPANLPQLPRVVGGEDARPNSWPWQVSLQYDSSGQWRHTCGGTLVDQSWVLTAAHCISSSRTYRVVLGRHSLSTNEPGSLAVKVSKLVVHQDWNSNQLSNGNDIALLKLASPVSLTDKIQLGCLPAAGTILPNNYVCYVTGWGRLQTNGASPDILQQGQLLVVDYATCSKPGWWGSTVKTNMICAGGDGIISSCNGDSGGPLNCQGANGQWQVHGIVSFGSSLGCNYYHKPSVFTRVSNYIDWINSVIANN

[3] = target: Chymotrypsinogen A (Bos taurus) (UniProt P00766); assay: Compound was evaluated for inhibitory activity against alpha-chymotrypsin at a concentration of 5.0 x 10e-4; NI = No inactivation
[4] = target: Chymotrypsinogen A (Bos taurus) (UniProt P00766); assay: Compound was evaluated for inhibitory activity against alpha-chymotrypsin at a concentration of 7.5 x 10e-6
[5] = target: T1, Chymotrypsin-like elastase family member 2A (Sus scrofa); assay: Compound was evaluated for inhibitory activity against PP elastase at a concentration of 2.0 x 10e-5; NI = No inactivation
[6] = target: Chymotrypsinogen A (Bos taurus) (UniProt P00766); assay: Compound was evaluated for inhibitory activity against alpha-chymotrypsin at a concentration of 6.0 x 10e-3
[7] = target: Chymotrypsinogen A (Bos taurus) (UniProt P00766); assay: Compound was evaluated for inhibitory activity against alpha-chymotrypsin at a concentration of 1.95 x 10e-2; NI = No inactivation
[8] = target: T1, Chymotrypsin-like elastase family member 2A (Sus scrofa); assay: Compound was evaluated for inhibitory activity against PP elastase at a concentration of 1.95 x 10e-2; NI = No inactivation

With `C[C@H](NC(=O)CCC(=O)O)C(=O)N[C@@H](C)C(=O)N[C@@H](Cc1ccccc1)C(=O)OC1CC1(Cl)Cl` (stereo partly drawn) the K obs / 1 [1] was 0.337 M⁻¹ s⁻¹ and the “K obs / 1” value [2] was “No inactivation”.
With `O=C1OCCCC1Cc1ccccc1` (stereo not drawn) the “K obs / 1” value [3] was “No inactivation”.
With `O=C1OC2C(CC1Cc1ccccc1)C2(Cl)Cl` (stereo not drawn) the K obs / 1 [4] was 54 M⁻¹ s⁻¹ and the “K obs / 1” value [5] was “No inactivation”.
In the case of `O=C(O)CCC(=O)N[C@@H](Cc1ccccc1)C(=O)OC1CC1(Cl)Cl` (stereo partly drawn), the K obs / 1 [6] is reported as 0.054 M⁻¹ s⁻¹.
With `O=C1CCC2C(O1)C2(Cl)Cl` (stereo not drawn) the “K obs / 1” value [7] was “No inactivation” and the “K obs / 1” value [8] was “No inactivation”.
